Molecules are shown by their SMILES.

This data set deals with Multidrug resistance-associated protein 1 (Homo sapiens, UniProt P33527). The data set can be described thus: TP_TRANSPORTER: inhibition of LTC4 uptake (LTC4: 0.00134 uM, MS-209: 3 uM) in membrane vesicles from MKN45R0.8 cells. The conditions noted are these: mkn45r0.8, 3 µM. Set-up: scale not given: the % may be the effect or the level left. It counts as functional, cell membranes, Membrane vesicle.
Chain of Multidrug resistance-associated protein 1 (P33527 whole entry): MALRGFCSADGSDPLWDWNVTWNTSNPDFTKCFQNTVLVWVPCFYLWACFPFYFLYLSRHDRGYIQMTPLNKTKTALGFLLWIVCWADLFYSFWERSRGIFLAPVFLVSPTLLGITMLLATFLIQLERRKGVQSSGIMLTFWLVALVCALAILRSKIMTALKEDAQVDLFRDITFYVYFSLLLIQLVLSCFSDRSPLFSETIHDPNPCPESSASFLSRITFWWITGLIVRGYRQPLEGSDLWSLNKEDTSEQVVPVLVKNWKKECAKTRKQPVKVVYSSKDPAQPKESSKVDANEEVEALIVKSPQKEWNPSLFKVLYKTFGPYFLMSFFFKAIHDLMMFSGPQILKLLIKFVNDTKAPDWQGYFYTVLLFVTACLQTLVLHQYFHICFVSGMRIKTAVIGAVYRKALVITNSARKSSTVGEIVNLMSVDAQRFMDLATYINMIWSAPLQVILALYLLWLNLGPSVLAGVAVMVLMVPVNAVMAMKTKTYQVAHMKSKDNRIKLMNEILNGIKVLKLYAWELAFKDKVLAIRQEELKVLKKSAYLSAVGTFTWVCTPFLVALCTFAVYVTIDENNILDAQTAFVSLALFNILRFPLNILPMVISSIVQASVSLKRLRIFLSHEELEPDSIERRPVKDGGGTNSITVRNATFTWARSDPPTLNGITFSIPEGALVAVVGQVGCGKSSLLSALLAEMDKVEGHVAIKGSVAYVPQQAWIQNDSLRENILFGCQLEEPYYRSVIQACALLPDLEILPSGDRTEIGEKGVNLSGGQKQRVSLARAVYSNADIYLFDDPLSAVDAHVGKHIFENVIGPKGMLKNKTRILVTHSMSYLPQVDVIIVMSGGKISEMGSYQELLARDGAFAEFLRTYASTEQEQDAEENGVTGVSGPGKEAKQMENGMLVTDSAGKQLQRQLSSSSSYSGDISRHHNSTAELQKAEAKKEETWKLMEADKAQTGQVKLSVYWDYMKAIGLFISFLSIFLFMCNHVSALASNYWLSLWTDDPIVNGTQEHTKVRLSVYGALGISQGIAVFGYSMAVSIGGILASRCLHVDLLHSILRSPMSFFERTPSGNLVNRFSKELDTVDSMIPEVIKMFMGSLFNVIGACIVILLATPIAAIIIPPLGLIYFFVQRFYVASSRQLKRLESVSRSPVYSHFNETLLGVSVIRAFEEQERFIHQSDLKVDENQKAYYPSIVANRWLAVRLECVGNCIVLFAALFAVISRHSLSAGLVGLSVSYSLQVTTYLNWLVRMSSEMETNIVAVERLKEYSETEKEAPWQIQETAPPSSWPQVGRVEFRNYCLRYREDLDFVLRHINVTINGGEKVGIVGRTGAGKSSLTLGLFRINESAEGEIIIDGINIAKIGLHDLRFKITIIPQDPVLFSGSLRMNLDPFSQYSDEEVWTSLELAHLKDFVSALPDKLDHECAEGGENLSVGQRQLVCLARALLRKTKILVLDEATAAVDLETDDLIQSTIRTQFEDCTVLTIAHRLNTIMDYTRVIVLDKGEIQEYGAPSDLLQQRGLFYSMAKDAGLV

The compound `O=C(C(c1ccccc1)c1ccccc1)N1CCN(C[C@@H](O)COc2cccc3ncccc23)CC1` showed an Activity of 20%.
